The values that follow are results of earlier work, collected in US5271935A, “Antibiotic, cammunocin, a process for the preparation thereof, and the use thereof as a pharmaceutical” (Hoechst Aktiengesellschaft, priority 1988, dated 1993).

The subject of this data set is Gram-positive bacteria. Particulars: other known antibiotics.

For amphomycin, the “requirement for calcium ions to show an antibiotic effect” value is listed as 1.0 mM.
